Results: patent publication EP1421935A1 (Casini, Angela, priority 2002, dated 2004)
Where two headings read alike, the source gives them in different places.

Experiments:
hCA I = hCA I (Homo sapiens, UniProt P00915); experiment: CA inhibition, esterase method (4-nitrophenylacetate hydrolysis)
Description: (§1) Stock solutions of inhibitor (1 mM) are prepared in distilled-deionized water with 10-20% (v/v) DMSO (which is not inhibitory at these concentrations) and dilutions up to 0.01 nM are done thereafter with distilled-deionized water. Inhibitor and enzyme solutions are preincubated together for 10 min at room temperature prior to assay, in order to allow for the formation of the E-I complex.

bCA IV = target: T1, bCA IV (Bos taurus, UniProt Q95323); experiment: as above
T1 sequence (Q95323 19-284): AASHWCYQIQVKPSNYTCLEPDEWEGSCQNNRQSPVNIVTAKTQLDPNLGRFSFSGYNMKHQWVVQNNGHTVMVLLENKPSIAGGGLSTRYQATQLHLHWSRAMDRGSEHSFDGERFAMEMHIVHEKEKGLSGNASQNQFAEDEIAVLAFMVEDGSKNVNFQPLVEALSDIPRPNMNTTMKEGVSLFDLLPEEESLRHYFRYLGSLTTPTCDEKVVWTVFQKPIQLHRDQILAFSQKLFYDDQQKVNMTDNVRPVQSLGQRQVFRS
Description: as §1

hCA II = hCA II (Homo sapiens, UniProt P00918); experiment: as above
Description: as §1

[1] = transcorneal penetration of drugs (in vitro corneal permeability); conditions: rate constant of transfer across excised rabbit cornea, pH 7.4
Description: The determination of transcorneal penetration of drugs is performed as follows. […] Excised rabbit corneas with either intact or denuded epithelium are used in these experiments. The pH is 7.4 and exposed area is 1.2 cm^2. Concentrations of drug of 40 - 2000 µM are placed in the epithelial chamber and samples of fluid are collected from the endothelial chamber at different intervals, up to 4 hr.

hCA I, sequence (P00915 whole entry): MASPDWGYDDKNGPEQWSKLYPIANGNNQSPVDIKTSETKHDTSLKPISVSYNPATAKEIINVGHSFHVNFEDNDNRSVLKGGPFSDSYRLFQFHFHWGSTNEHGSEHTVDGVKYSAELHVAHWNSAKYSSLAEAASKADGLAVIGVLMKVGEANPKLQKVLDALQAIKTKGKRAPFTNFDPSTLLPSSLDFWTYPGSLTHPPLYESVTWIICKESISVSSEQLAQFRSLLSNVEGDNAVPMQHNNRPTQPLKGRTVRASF

kin x 10^3 (hr^-1) No epithelium ([1]; denuded epithelium)	kin x 10^3 (hr^-1) Cornea intact ([1]; intact epithelium)	Structure (SMILES)	Ki (hCA I)	Ki (bCA IV)	Ki (hCA II)	Ki (bCA IV; read-out: KI (nM) bCA IV, From bovine lung microsomes, by the esterase method, pH 7.40, 25°C)
		NS(=O)(=O)c1ccc(CN=C=S)cc1 [B, 4-isothiocyanatomethyl-benzenesulfonamide]	4300 nM	270 nM	162 nM	
		NS(=O)(=O)c1ccc(CNC(=S)NC(CC(=O)O)C(=O)NC(CC(=O)O)C(=O)NC(CC(=O)O)C(=O)NC(CC(=O)O)C(=O)O)cc1 (stereo not drawn) [B47]	51 nM	24 nM	9 nM	
		NS(=O)(=O)c1ccc(CNC(=S)NC(Cc2c[nH]c3ccccc23)C(=O)O)cc1 (stereo not drawn) [B36]	42 nM	17 nM	9 nM	
		CC(NC(=S)NCc1ccc(S(N)(=O)=O)cc1)C(=O)NC(Cc1ccccc1)C(=O)O (stereo not drawn) [B43]	21 nM	10 nM	3 nM	
		CC(O)C(NC(=S)NCc1ccc(S(N)(=O)=O)cc1)C(=O)O (stereo not drawn) [B21]	24 nM	13 nM	2 nM	
7.0 hr^-1	0.37 hr^-1	CC(=O)Nc1nnc(S(N)(=O)=O)s1 [Acetazolamide, acetazolamide, reference compound]				
		CCC(C)C(NC(=S)NCc1ccc(S(N)(=O)=O)cc1)C(=O)O (stereo not drawn) [B26, 1-(4-Sulfamoylphenylmethyl)-3-(1-carboxy-2-methyl-butyl)-thiourea]	18 nM	8 nM	4 nM	
		NS(=O)(=O)c1ccc(CNC(=S)NCCc2c[nH]cn2)cc1 [B10, 1-(4-Sulfamoylphenylmethyl)-3-[(1H-imidazol)-4-yl-ethyl]-thiourea]	88 nM	52 nM	30 nM	
		NS(=O)(=O)c1ccc(CNC(=S)NC(Cc2cnc[nH]2)C(=O)NC(Cc2ccccc2)C(=O)O)cc1 (stereo not drawn) [B42]	19 nM	7 nM	2 nM	
		NS(=O)(=O)c1ccc(CNC(=S)NC(CCC(=O)O)C(=O)O)cc1 (stereo not drawn) [B29]	39 nM	23 nM	10 nM	
		NS(=O)(=O)c1ccc(CNC(=S)NCCc2ccccc2)cc1 [B9]	126 nM	76 nM	39 nM	
		NS(=O)(=O)c1ccc(CNC(=S)NC(Cc2ccc(O)cc2)C(=O)O)cc1 (stereo not drawn) [B34]	24 nM	9 nM	3 nM	
		NS(=O)(=O)c1ccc(CNC(=S)NCCc2ccccn2)cc1 [B8]	120 nM	75 nM	38 nM	
		CSCCC(NC(=S)NCc1ccc(S(N)(=O)=O)cc1)C(=O)O (stereo not drawn) [B23]	19 nM	10 nM	3 nM	
		NS(=O)(=O)c1ccc(CNC(=S)NC(Cc2ccccc2)C(=O)O)cc1 (stereo not drawn) [B33, 1-(4-Sulfamoylphenylmethyl)-3-(1-carboxy-2-phenyl-ethyl)-thiourea]	27 nM	14 nM	5 nM	
		NS(=O)(=O)c1ccc(CNC(=S)NCC(=O)O)cc1 [B14, 1-(4-Sulfamoylphenylmethyl)-3-(carboxymethyl)-thiourea]	56 nM	34 nM	17 nM	
		NS(=O)(=O)c1ccc(CNC(=S)NC(Cc2cnc[nH]2)C(=O)NCC(=O)O)cc1 (stereo not drawn) [B41]	12 nM	5 nM	1 nM	
		CC(C)C(NC(=S)NCc1ccc(S(N)(=O)=O)cc1)C(=O)O (stereo not drawn) [B24]	20 nM	9 nM	4 nM	

kin x 10^3 (hr^-1) No epithelium ([1]; denuded epithelium)	kin x 10^3 (hr^-1) Cornea intact ([1]; intact epithelium)	Structure (SMILES)	Ki (hCA I)	Ki (bCA IV)	Ki (hCA II)	Ki (bCA IV; read-out: KI (nM) bCA IV, From bovine lung microsomes, by the esterase method, pH 7.40, 25°C)
		NS(=O)(=O)c1ccc(CNC(=S)NCc2ccccn2)cc1 [B7]	124 nM	74 nM	43 nM	
		NC(=O)CCC(NC(=S)NCc1ccc(S(N)(=O)=O)cc1)C(=O)O (stereo not drawn) [B30]	36 nM	21 nM	9 nM	
		NS(=O)(=O)c1ccc(CNC(=S)NC(CC(=O)O)C(=O)O)cc1 (stereo not drawn) [B27]	27 nM	15 nM	7 nM	
		NS(=O)(=O)c1ccc(CNC(=S)NCCCC(=O)O)cc1 [B17]	40 nM	27 nM	10 nM	
		NCCCCC(NC(=S)NCc1ccc(S(N)(=O)=O)cc1)C(=O)O (stereo not drawn) [B37]	73 nM	34 nM	10 nM	
		CC(C)CC(NC(=S)NCc1ccc(S(N)(=O)=O)cc1)C(=O)NCC(=O)O (stereo not drawn) [B44]	20 nM	11 nM	4 nM	
		NS(=O)(=O)c1cc(Cl)c(Cl)c(S(N)(=O)=O)c1 [Dichlorophenamide 6, dichlorophenamide, reference compound]				380 nM
		NS(=O)(=O)c1ccc(CNC(=S)NCC(=O)NCC(=O)O)cc1 [B39]	50 nM	26 nM	13 nM	
		N=C(N)NCCCC(NC(=S)NCc1ccc(S(N)(=O)=O)cc1)C(=O)O (stereo not drawn) [B38]	103 nM	56 nM	18 nM	
		CC(NC(=S)NCc1ccc(S(N)(=O)=O)cc1)C(=O)O (stereo not drawn) [B15]	48 nM	29 nM	10 nM	
		NS(=O)(=O)c1ccc(CNC(=S)N2CCCC2C(=O)NCC(=O)NCC(=O)O)cc1 (stereo not drawn) [B46]	22 nM	8 nM	3 nM	
		NS(=O)(=O)c1ccc(CNC(=S)NC(CC(=O)O)C(=O)NC(CC(=O)O)C(=O)O)cc1 (stereo not drawn) [B45]	37 nM	25 nM	12 nM	
		NS(=O)(=O)c1ccc(CNC(=S)NC(Cc2ccc(O)c(O)c2)C(=O)O)cc1 (stereo not drawn) [B35]	30 nM	14 nM	6 nM	
		NS(=O)(=O)c1ccc(CNC(=S)NCCC(=O)O)cc1 [B16]	39 nM	28 nM	8 nM	
		NS(=O)(=O)c1ccc(CNC(=S)NC(Cc2cnc[nH]2)C(=O)O)cc1 (stereo not drawn) [B32]	33 nM	14 nM	6 nM	
		NS(=O)(=O)c1ccc(CNC(=S)N2CCCC2C(=O)O)cc1 (stereo not drawn) [B31]	89 nM	55 nM	21 nM	
		CC(C)CC(NC(=S)NCc1ccc(S(N)(=O)=O)cc1)C(=O)O (stereo not drawn) [B25]	17 nM	11 nM	3 nM	
